Laboratory results published in patent EP4273147A1, “SUBSTITUTED SPIROLACTAMS, SALTS THEREOF AND THEIR USE AS HERBICIDALLY ACTIVE SUBSTANCES” (Bayer Aktiengesellschaft, priority 2022, dated 2023).

Tests used:
STEME [1] = assay: Herbicidal pre-emergence action (Table A6); assay type: in vivo, Stellaria media; conditions: visual grading after ca. 3 weeks
Summary of the method: (§1)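 For this pre-emergence setup, sandy loam pots received seeds of one monocot and one dicot weed species each. The seeds were then covered with soil.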

AMARE [2] = assay: Herbicidal pre-emergence action (Table A8); assay type: in vivo, Amaranthus retroflexus; conditions: application rate 1280 g/ha; visual grading after ca. 3 weeks vs untreated controls (100% = plants have died off, 0% = as control plants)
Summary of the method: as §1

ECHCG [3] = assay: Herbicidal post-emergence action (Table B3); assay type: in vivo, Echinochloa crus-galli; conditions: application rate 1280 g/ha, rated visually after about 3 weeks; for pest or weed control at 1280 g/ha: Echinochloa crus-galli, post-emergence, 504 h, read-out: post-emergence activity against ECHCG
Summary of the method: (§2)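 Plants grown from seed in a greenhouse are treated at the one-leaf stage, two to three weeks after sowing. They then stay under optimum growth conditions for about three weeks before herbicidal activity is scored visually on a 0–100% scale against untreated controls.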

POAAN [4] = assay: Herbicidal post-emergence action (Table B7); assay type: in vivo, Poa annua; conditions: application rate 1280 g/ha
Summary of the method: as §2

POAAN [5] = assay: Herbicidal pre-emergence action (Table A7); assay type: in vivo, Poa annua; conditions: visual grading after ca. 3 weeks
Summary of the method: as §1

SETVI [6] = assay: Herbicidal post-emergence action (Table B8); assay type: in vivo, Setaria viridis; conditions: application rate 1280 g/ha
Summary of the method: as §2

AMARE [7] = assay: Herbicidal post-emergence action (Table B11); assay type: in vivo, Amaranthus retroflexus; conditions: application rate 1280 g/ha
Procedure: (§3) Seeds of mono- and dicotyledonous weed plants were placed in plastic pots in sandy loam soil (doubly sown with in each case one species of mono- or dicotyledonous weed plants per pot), covered with soil and cultivated in a greenhouse under controlled growth conditions. 2 to 3 weeks after sowing, the test plants were treated at the one-leaf stage. […] After the test plants had been kept in the greenhouse under optimum growth conditions for about 3 weeks, the activity of the preparations was rated visually in comparison to untreated controls. For example, 100% activity = the plants have died, 0% activity = like control plants.

SETVI [8] = assay: Herbicidal pre-emergence action (Table A5); assay type: in vivo, Setaria viridis; conditions: visual grading after ca. 3 weeks
Summary of the method: as §1

STEME [9] = assay: Herbicidal post-emergence action (Table B9); assay type: in vivo, Stellaria media; conditions: application rate 1280 g/ha
Procedure: as §3

KCHSC [10] = assay: Herbicidal pre-emergence action (Table A10); assay type: in vivo, Kochia scoparia; conditions: visual grading after ca. 3 weeks
Summary of the method: as §1

LOLRI [11] = assay: Herbicidal pre-emergence action (Table A3); assay type: in vivo, Lolium rigidum; conditions: visual grading after ca. 3 weeks; for pest or weed control at 1280 g/ha: Lolium rigidum, pre-emergence, 504 h, read-out: pre-emergence activity against LOLRI
Summary of the method: as §1

ABUTH [12] = assay: Herbicidal post-emergence action (Table B1); assay type: in vivo, Abutilon theophrasti; conditions: application rate 1280 g/ha; treated at one-leaf stage; rated visually after about 3 weeks vs untreated controls (100% = plants have died, 0% = like control plants)
Procedure: as §3

VERPE [13] = assay: Herbicidal post-emergence action (Table B10); assay type: in vivo, Veronica persica; conditions: application rate 1280 g/ha
Summary of the method: as §2

SETVI [14] = assay: Herbicidal pre-emergence action, section C (Table C10); assay type: in vivo, Setaria viridis; conditions: application rate 320 g/ha; visual grading after ca. 3 weeks
ECHCG [15] = assay: Herbicidal pre-emergence action (Table A2); assay type: in vivo, Echinochloa crus-galli; conditions: visual grading after ca. 3 weeks
Summary of the method: as §1

ABUTH [16] = assay: Herbicidal pre-emergence action, section C (Table C1); assay type: in vivo, Abutilon theophrasti; conditions: application rate 320 g/ha; visual grading after ca. 3 weeks
TRZAS [17] = assay: Post-emergence effects on crop plants (Table F2); assay type: in vivo, Triticum aestivum; conditions: application rate 320 g/ha, crop plant TRZAS
Description: (§4) 2 to 3 weeks after sowing, the test plants were sprayed in the single-leaf stage.

ECHCG [18] = assay: Herbicidal post-emergence action, section E (Table E5); assay type: in vivo, Echinochloa crus-galli; conditions: application rate 320 g/ha; assessed visually after ca. 3 weeks
Description: as §4

DIGSA [19] = assay: Herbicidal pre-emergence action (Table A12); assay type: in vivo, Digitaria sanguinalis; conditions: application rate 320 g/ha; visual grading after ca. 3 weeks
Summary of the method: as §1

DIGSA [20] = assay: Herbicidal pre-emergence action, section C (Table C5); assay type: in vivo, Digitaria sanguinalis; conditions: application rate 320 g/ha; visual grading after ca. 3 weeks
VIOTR = assay: Herbicidal pre-emergence action, section C (Table C12); assay type: in vivo, Viola tricolor; conditions: application rate 80 g/ha; visual grading after ca. 3 weeks
ALOMY [21] = assay: Herbicidal pre-emergence action (Table A9); assay type: in vivo, Alopecurus myosuroides; conditions: application rate 1280 g/ha; visual grading after ca. 3 weeks
Summary of the method: as §1

VERPE [22] = assay: Herbicidal pre-emergence action (Table A11); assay type: in vivo, Veronica persica; conditions: application rate 1280 g/ha; visual grading after ca. 3 weeks
Summary of the method: as §1

ALOMY [23] = assay: Herbicidal pre-emergence action, section C (Table C2); assay type: in vivo, Alopecurus myosuroides; conditions: application rate 80 g/ha; visual grading after ca. 3 weeks
Description: (§5) Seeds of mono- and dicotyledonous weed plants and crop plants were sown, in plastic or organic planting pots, in sandy loam and covered with soil. The compounds according to the invention, formulated in the form of wettable powders (WP) or as emulsifiable concentrates (EC), were applied to the surface of the covering soil as aqueous suspension or emulsion, with the addition of 0.5% of an additive, at an application rate of 600 1 of water/ha (converted). Following treatment, the pots were placed in a greenhouse and kept under optimum growth conditions for the test plants.

MATIN [24] = assay: Herbicidal pre-emergence action, section C (Table C8); assay type: in vivo, Matricaria inodora; conditions: application rate 320 g/ha; visual grading after ca. 3 weeks
MATIN [25] = assay: Herbicidal pre-emergence action (Table A4); assay type: in vivo, Matricaria inodora; conditions: visual grading after ca. 3 weeks
Summary of the method: as §1

ORYZA [26] = assay: Pre-emergence effects on crop plants (Table D3); conditions: crop plant; application rate 80 g/ha; visual grading after ca. 3 weeks
POLCO = assay: Herbicidal pre-emergence action, section C (Table C9); assay type: in vivo, Polygonum convolvulus; conditions: application rate 320 g/ha; visual grading after ca. 3 weeks
ECHCG [27] = assay: Herbicidal pre-emergence action, section C (Table C6); assay type: in vivo, Echinochloa crus-galli; conditions: application rate 320 g/ha; visual grading after ca. 3 weeks
Description: as §5

ZEAMX [28] = assay: Post-emergence effects on crop plants (Table F1); assay type: in vivo, Zea mays; conditions: application rate 80 g/ha, crop plant ZEAMX
Description: as §4

TRZAS [29] = assay: Pre-emergence effects on crop plants (Table D2); assay type: in vivo, Triticum aestivum; conditions: crop plant; application rate 80 g/ha; visual grading after ca. 3 weeks
VERPE [30] = assay: Herbicidal pre-emergence action, section C (Table C11); assay type: in vivo, Veronica persica; conditions: application rate 320 g/ha; visual grading after ca. 3 weeks
ZEAMX [31] = assay: Pre-emergence effects on crop plants (Table D1); assay type: in vivo, Zea mays; conditions: crop plant; application rate 320 g/ha; visual grading after ca. 3 weeks
LOLRI [32] = assay: Herbicidal pre-emergence action, section C (Table C7); assay type: in vivo, Lolium rigidum; conditions: application rate 320 g/ha; visual grading after ca. 3 weeks
Description: as §5

MATIN [33] = assay: Herbicidal post-emergence action (Table B6); assay type: in vivo, Matricaria inodora; conditions: application rate 1280 g/ha; rated visually after about 3 weeks
Summary of the method: as §2

ORYZA [34] = assay: Post-emergence effects on crop plants (Table F3); assay type: in vivo, Oryza sativa; conditions: application rate 320 g/ha, crop plant ORYZA
Description: as §4

SETVI [35] = assay: Herbicidal post-emergence action, section E (Table E8); assay type: in vivo, Setaria viridis; conditions: application rate 320 g/ha; assessed visually after ca. 3 weeks
Description: as §4

KCHSC [36] = assay: Herbicidal post-emergence action (Table B4); assay type: in vivo, Kochia scoparia; conditions: application rate 1280 g/ha; rated visually after about 3 weeks
Procedure: as §3

LOLRI [37] = assay: Herbicidal post-emergence action (Table B5); assay type: in vivo, Lolium rigidum; conditions: application rate 1280 g/ha; rated visually after about 3 weeks
Procedure: as §3

## N#Cc1ccc(CN2CCCC3(CCCN(Cc4ccc(C#N)s4)C3=O)C2=O)s1 (single isomer, unassigned; (-)) [I-208, (-)-2,8-bis[(5-cyanothiophen-2-yl)methyl]-2,8-diazaspiro[5.5]undecane-1,7-dione]
STEME [1]; application rate 1280 g/ha
  pre-emergence activity against STEME: 100%
AMARE [2]
  pre-emergence activity against AMARE: 100%
ECHCG [3]
  pest or weed control at 1280 g/ha: 90%
POAAN [4]
  post-emergence activity against POAAN: 90%
POAAN [5]; Poa annua, pre-emergence, 504 h, application rate 1280 g/ha, read-out: pre-emergence activity against POAAN
  pest or weed control at 1280 g/ha: 100%
SETVI [6]
  post-emergence activity against SETVI: 90%
AMARE [7]
  post-emergence activity against AMARE: 90%
SETVI [8]; application rate 1280 g/ha
  pre-emergence activity against SETVI: 90%
STEME [9]
  post-emergence activity against STEME: 90%
KCHSC [10]; application rate 1280 g/ha
  pre-emergence activity against KCHSC: 90%
LOLRI [11]; application rate 1280 g/ha
  pest or weed control at 1280 g/ha: 90%
ABUTH [12]
  post-emergence activity against ABUTH: 90%
VERPE [13]
  post-emergence activity against VERPE: 90%

## O=C1N(Cc2ccccc2)CCC12CCCN(Cc1cccc(F)c1F)C2=O (racemic) [I-028]
STEME [1]; application rate 320 g/ha
  pre-emergence activity against STEME: 90%
SETVI [14]
  pre-emergence activity against SETVI: 100%
ECHCG [15]; application rate 320 g/ha
  pre-emergence activity against ECHCG: 100%
ABUTH [16]
  pre-emergence activity against ABUTH: 90%
TRZAS [17]
  post-emergence activity against TRZAS: 0%
ECHCG [3]
  post-emergence activity against ECHCG: 90%
ECHCG [18]
  post-emergence activity against ECHCG: 80%
DIGSA [19]
  pre-emergence activity against DIGSA: 90%
POAAN [5]; application rate 320 g/ha
  pre-emergence activity against POAAN: 100%
DIGSA [20]
  pre-emergence activity against DIGSA: 100%
VIOTR
  pre-emergence activity against VIOTR: 90%
ALOMY [21]
  pre-emergence activity against ALOMY: 90%
VERPE [22]
  pre-emergence activity against VERPE: 90%
ALOMY [23]
  pre-emergence activity against ALOMY: 90%
SETVI [6]
  post-emergence activity against SETVI: 90%
MATIN [24]
  pre-emergence activity against MATIN: 80%
MATIN [25]; application rate 320 g/ha
  pre-emergence activity against MATIN: 90%
ORYZA [26]
  pre-emergence activity against ORYZA: 0%
SETVI [8]; application rate 320 g/ha
  pre-emergence activity against SETVI: 100%
POLCO
  pre-emergence activity against POLCO: 90%
ECHCG [27]
  pre-emergence activity against ECHCG: 100%
KCHSC [10]; application rate 320 g/ha
  pre-emergence activity against KCHSC: 90%
ZEAMX [28]
  post-emergence activity against ZEAMX: 0%
TRZAS [29]
  pre-emergence activity against TRZAS: 20%
VERPE [30]
  pre-emergence activity against VERPE: 90%
ZEAMX [31]
  pre-emergence activity against ZEAMX: 0%
LOLRI [11]; application rate 320 g/ha
  pre-emergence activity against LOLRI: 100%
LOLRI [32]
  pre-emergence activity against LOLRI: 100%
MATIN [33]
  post-emergence activity against MATIN: 90%
ORYZA [34]
  post-emergence activity against ORYZA: 0%
SETVI [35]
  post-emergence activity against SETVI: 80%

## O=C1N(Cc2cccc(F)c2F)CCC12CCN(Cc1cccc(F)c1F)C2=O (racemic) [I-090]
STEME [1]; application rate 1280 g/ha
  pre-emergence activity against STEME: 90%
ECHCG [15]; application rate 1280 g/ha
  pre-emergence activity against ECHCG: 100%
MATIN [25]; application rate 1280 g/ha
  pre-emergence activity against MATIN: 90%
SETVI [8]; application rate 1280 g/ha
  pre-emergence activity against SETVI: 90%
KCHSC [10]; application rate 1280 g/ha
  pre-emergence activity against KCHSC: 90%
LOLRI [11]; application rate 1280 g/ha
  pre-emergence activity against LOLRI: 90%
KCHSC [36]
  post-emergence activity against KCHSC: 90%

## O=C1N(Cc2cccnc2C(F)(F)F)CCCC12CCCN(Cc1cccnc1C(F)(F)F)C2=O [I-184, (+)-2,8-bis{[2-(trifluoromethyl)pyridin-3-yl]methyl}-2,8-diazaspiro[5.5]undecane-1,7-dione]
ECHCG [15]; application rate 1280 g/ha
  pre-emergence activity against ECHCG: 100%
ECHCG [3]
  pest or weed control at 1280 g/ha: 90%
POAAN [4]
  post-emergence activity against POAAN: 90%
LOLRI [37]
  post-emergence activity against LOLRI: 90%
AMARE [7]
  post-emergence activity against AMARE: 90%
LOLRI [11]; application rate 1280 g/ha
  pest or weed control at 1280 g/ha: 90%
KCHSC [36]
  post-emergence activity against KCHSC: 90%
VERPE [13]
  post-emergence activity against VERPE: 90%
